This experiment deals with SARS-CoV-2 stock strain NL/2020. As to the kind of experiment: Protective effect against virus-induced cytopathic effect (crystal violet staining of Vero-E6 monolayer). Format: cell-based. The settings on record: Vero-E6, SARS-CoV-2 MOI 0.001, 72 h; for PC MIN (lowest protective concentration) / minimal effective concentration: 50 to 0.78 μM tested; for EC50: lowest fully protecting concentration averaged with next lower dilution, read-out: ESTIMATED EC50; for minimal effective concentration: read-out: PC MIN (lowest protective concentration).

Where [1] appears, read: Severe acute respiratory syndrome coronavirus 2, Vero C1008, 72 h.

Where two headings read alike, the source gives them in different places.

In general, EC50 refers to the midpoint of the concentration-response curve.

For the compound `COC(=O)c1cc(-c2ccc(C3CC3)cc2)ccc1NC(C#N)[C@H](Cc1c[nH]c2ccccc12)NC(=O)OC(C)(C)C` (stereo partly drawn) [(Im3), methyl 4-(((2S)-2-((tert-butoxycarbonyl)amino)-1-cyano-3-(1H-indol-3-yl)propyl)amino)-4′-(cyclopropyl)-[1,1′-biphenyl]-3-carboxylate], the “PC MIN (lowest protective concentration)” value was 3.12 µM and the EC50 was 2.34 µM.
Turning to `COC(=O)c1cc(-c2ccc(C3CC3)cc2)ccc1NC(C#N)[C@H](Cc1c[nH]c2ccccc12)NC(=O)OC(C)(C)C` (stereo partly drawn) [(Im4), methyl 4-(((2S)-2-((tert-butoxycarbonyl)amino)-1-cyano-3-(1H-indol-3-yl)propyl)amino)-4′-cyclopropyl-[1,1′-biphenyl]-3-carboxylate], the “PC MIN (lowest protective concentration)” value is 6.25 µM and the 50% effective concentration (EC50) is 4.69 µM.
`COC(=O)c1cc(-c2ccc(N3CCN(C)CC3)cc2)ccc1NC(C#N)[C@H](Cc1c[nH]c2ccccc12)NC(=O)OC(C)(C)C` (stereo partly drawn) [(In), methyl 4-(((2S)-2-((tert-butoxycarbonyl)amino)-1-cyano-3-(1H-indol-3-yl)propyl)amino)-4′-(4-methylpiperazin-1-yl)-[1,1′-biphenyl]-3-carboxylate]: under setting [1], the minimal effective concentration was 1.56 µM and the EC50 was 1.17 µM.
For `COC(=O)c1cc(-c2ccc(C)nc2)ccc1NC(C#N)[C@H](Cc1c[nH]c2ccccc12)NC(=O)OC(C)(C)C` (stereo partly drawn) [(Ir), methyl 2-(((2S)-2-((tert-butoxycarbonyl)amino)-1-cyano-3-(1H-indol-3-yl)propyl)amino)-5-(6-methylpyridin-3-yl)benzoate], under setting [1], the minimal effective concentration was 1.56 µM and the EC50 is 1.17 µM.
`COC(=O)c1cc(-c2ccc(OC)nc2)ccc1NC(C#N)[C@H](Cc1c[nH]c2ccccc12)NC(=O)OC(C)(C)C` (stereo partly drawn) [(It), methyl 2-(((2S)-2-((tert-butoxycarbonyl)amino)-1-cyano-3-(1H-indol-3-yl)propyl)amino)-5-(6-methoxypyridin-3-yl)benzoate]: under setting [1], the minimal effective concentration came to 1.56 µM and the half-maximal effective concentration (EC50) is 1.17 µM.
With `COC(=O)c1ccccc1NC(C#N)[C@H](Cc1c[nH]c2ccccc12)NC(=O)OC(C)(C)C` (stereo partly drawn) [(Iu), methyl 2-(((2S)-2-((tert-butoxycarbonyl)amino)-1-cyano-3-(1H-indol-3-yl)propyl)amino)benzoate], under setting [1], the minimal effective concentration was determined as 3.12 µM and the concentration giving a half-maximal response (EC50) was 2.34 µM.
In the case of `CC(C)(C)OC(=O)N[C@@H](Cc1c[nH]c2ccccc12)C(C#N)Nc1ccccc1C(=O)OC(C)(C)C` (stereo partly drawn) [(Iv), tert-Butyl 2-(((2S)-2-((tert-butoxycarbonyl)amino)-1-cyano-3-(1H-indol-3-yl)propyl)amino)-benzoate], under setting [1], the minimal effective concentration came to 3.12 µM and the EC50 was 2.34 µM.
`CCCCc1ccc(-c2ccc(NC(C#N)[C@H](Cc3c[nH]c4ccccc34)NC(=O)OC(C)(C)C)c(C(=O)OC)c2)cc1` (stereo partly drawn) [(Iw), methyl 4-(((2S)-2-((tert-butoxycarbonyl)amino)-1-cyano-3-(1H-indol-3-yl)propyl)amino)-4′-butyl-[1,1′-biphenyl]-3-carboxylate]: the “PC MIN (lowest protective concentration)” value was found to be 3.12 µM. Also, the EC50 under setting [1] was 2.34 µM.
`CCN(CC)c1ccc(-c2ccc(NC(C#N)[C@H](Cc3c[nH]c4ccccc34)NC(=O)OC(C)(C)C)c(C(=O)OC)c2)cc1` (stereo partly drawn) [(Ix), methyl 4-(((2S)-2-((tert-butoxycarbonyl)amino)-1-cyano-3-(1H-indol-3-yl)propyl)amino)-4′-(diethylamino)-[1,1′-biphenyl]-3-carboxylate]: under setting [1], the minimal effective concentration came out at 3.12 µM and the EC50 is 2.34 µM.
With `CCCOc1ccc(-c2ccc(NC(C#N)[C@H](Cc3c[nH]c4ccccc34)NC(=O)OC(C)(C)C)c(C(=O)OC)c2)cc1` (stereo partly drawn) [(Iy), methyl 4-(((2S)-2-((tert-butoxycarbonyl)amino)-1-cyano-3-(1H-indol-3-yl)propyl)amino)-4′-propoxy-[1,1′-biphenyl]-3-carboxylate], under setting [1], the minimal effective concentration is 3.12 µM and the concentration for a half-maximal effect (EC50) was 2.34 µM.
